How the values were obtained:
chondroadherin = biological target: T1, chondroadherin (Homo sapiens, UniProt O15335); test: Binding of peptide AB31 to chondroadherin in solution by size exclusion chromatography
T1 construct: The construct comprises residues 23–359 of Uniprot O15335 and is untagged; made in house; host or cells: HEK293 c18 cells
T1 sequence (O15335 23-359): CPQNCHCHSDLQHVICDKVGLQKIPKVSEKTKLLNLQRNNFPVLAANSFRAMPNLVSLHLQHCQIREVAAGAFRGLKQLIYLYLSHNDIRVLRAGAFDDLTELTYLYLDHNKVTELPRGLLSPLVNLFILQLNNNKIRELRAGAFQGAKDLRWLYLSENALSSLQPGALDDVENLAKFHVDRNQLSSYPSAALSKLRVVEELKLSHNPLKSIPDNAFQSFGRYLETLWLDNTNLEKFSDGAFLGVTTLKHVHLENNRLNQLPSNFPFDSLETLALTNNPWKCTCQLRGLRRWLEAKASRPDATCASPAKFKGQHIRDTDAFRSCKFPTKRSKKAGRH
Protocol: The natural affinity of chondroadherin for Ni^2 + affinity resin was used to purify the untagged protein. The filtered serum-free cell culture supernatant was adjusted to a final concentration of 20 mM Na-HEPES (pH 7.5) and loaded onto a 5-ml HisTrap Excel column using an Äkta Purifier. Elution was performed with an imidazole gradient in buffer A. The chondroadherin protein was further purified by size exclusion chromatography as described for fibromodulin. Chondroadherin and the collagen-like peptide AB31 were mixed in a 1:2 molar ratio and incubated for 15 min at room temperature. The chondroadherin-AB31 complex was purified by size exclusion chromatography in buffer A.

[1] = ref [26], cited from earlier work
Text: Fig. 3 Concave face interactions in SLRP crystal structures. For each structure, two orthogonal views are shown. […] The experimentally determined mass of fibromodulin was 56.7 kDa (calculated: 41.5 kDa + 4 N-linked glycans) and that of chondroadherin was 39.6 kDa (calculated: 38.6 kDa). In comparison, using the same SEC-MALS setup, we previously determined an experimental mass of 83.5 kDa for the glycosylated decorin core protein (calculated: 36.2 kDa + 4 N-linked glycans).

decorin dimer = details: ref [26]; read-out: dissociation constant of decorin dimer; cited from earlier work
Text: We used size exclusion chromatography with multi-angle light scattering (SEC-MALS) to determine the oligomeric states of fibromodulin and chondroadherin in solution (Fig. 4). The experimentally determined mass of fibromodulin was 56.7 kDa (calculated: 41.5 kDa + 4 N-linked glycans) and that of chondroadherin was 39.6 kDa (calculated: 38.6 kDa). In comparison, using the same SEC-MALS setup, we previously determined an experimental mass of 83.5 kDa for the glycosylated decorin core protein (calculated: 36.2 kDa + 4 N-linked glycans).

Substance	complex formation with chondroadherin in solution (chondroadherin; SEC, Superdex 75, AB31:chondroadherin 2:1 molar ratio, 15 min, room temperature, buffer A (20 mM HEPES pH 7.5, 150 mM NaCl, 2 mM CaCl2))	binding site quality of shared sequence (chondroadherin; sequence shared by II-26 and AB31)	oligomeric state in solution (literature) ([1]; not SEC-MALS of this work, [32], [33])	experimental mass of glycosylated decorin core protein ([1]; same SEC-MALS setup, previously determined) [kDa]	Kd (decorin dimer) [µM]
GAOGPSGFQGLOGPOGPO	forms a stable complex with chondroadherin in solution	high-affinity binding site for chondroadherin			
decorin			form stable dimers in solution	83.5	1.4
